According to article PMC5342726, “Identification of small molecule inhibitors of ERCC1-XPF that inhibit DNA repair and potentiate cisplatin efficacy in cancer cells” (Oncotarget, 2016):

Assays:
[1] = tested on: HhaI; experiment: Secondary screen, fluorescence assay with HhaI endonuclease; assay type: biochemical; conditions: compound titration in the HTS assay
[2] = tested on: H460 cells; experiment: Cisplatin interstrand crosslink repair by comet assay; assay type: cell-based; conditions: compound 15 μM 2 h then cisplatin at IC90; 0-72 h
Experimental: (B) After treatment, comet assay was performed as described at different time intervals (0, 24, 48 and 72 h). The percentage of interstrand crosslinks remaining was calculated using olive tail moment. Results are represented as mean ± SEM of three independent experiments.
The data is expressed as the percentage of crosslinks remaining at the time points assessed.
Cells were treated with compound (Hit control (9:1 DMSO-glycerol). After incubation at 37°C 1 or Hit 2) and cisplatin or just cisplatin alone in serum for 30 minutes, 2 μL of the pre-incubate was diluted into a free media. […] Cells were further treated with 100 μM

[3] = tested on: H460 cells; experiment: Cisplatin intrastrand adduct repair by ELISA; assay type: cell-based; conditions: 72 hours (last time point), compound 15 μM 2 h then cisplatin at IC90 2 h; relative to 0 hour
[4] = target: T1, ERCC1-XPF (Homo sapiens, UniProt P07992+Q92889); experiment: Rapid dilution experiment for reversible or irreversible binding; assay type: biochemical; conditions: for recovery of enzymatic activity after rapid dilution: 100-fold enzyme preincubated 30 min with 10 times IC90, diluted 100-fold; for reversibility of binding to ERCC1-XPF: rapid dilution method
T1 construct: made in house; host or cells: Sf9 insect cells, baculovirus (obtained from Aziz Sancar)
T1 sequence (Q92889 1-916): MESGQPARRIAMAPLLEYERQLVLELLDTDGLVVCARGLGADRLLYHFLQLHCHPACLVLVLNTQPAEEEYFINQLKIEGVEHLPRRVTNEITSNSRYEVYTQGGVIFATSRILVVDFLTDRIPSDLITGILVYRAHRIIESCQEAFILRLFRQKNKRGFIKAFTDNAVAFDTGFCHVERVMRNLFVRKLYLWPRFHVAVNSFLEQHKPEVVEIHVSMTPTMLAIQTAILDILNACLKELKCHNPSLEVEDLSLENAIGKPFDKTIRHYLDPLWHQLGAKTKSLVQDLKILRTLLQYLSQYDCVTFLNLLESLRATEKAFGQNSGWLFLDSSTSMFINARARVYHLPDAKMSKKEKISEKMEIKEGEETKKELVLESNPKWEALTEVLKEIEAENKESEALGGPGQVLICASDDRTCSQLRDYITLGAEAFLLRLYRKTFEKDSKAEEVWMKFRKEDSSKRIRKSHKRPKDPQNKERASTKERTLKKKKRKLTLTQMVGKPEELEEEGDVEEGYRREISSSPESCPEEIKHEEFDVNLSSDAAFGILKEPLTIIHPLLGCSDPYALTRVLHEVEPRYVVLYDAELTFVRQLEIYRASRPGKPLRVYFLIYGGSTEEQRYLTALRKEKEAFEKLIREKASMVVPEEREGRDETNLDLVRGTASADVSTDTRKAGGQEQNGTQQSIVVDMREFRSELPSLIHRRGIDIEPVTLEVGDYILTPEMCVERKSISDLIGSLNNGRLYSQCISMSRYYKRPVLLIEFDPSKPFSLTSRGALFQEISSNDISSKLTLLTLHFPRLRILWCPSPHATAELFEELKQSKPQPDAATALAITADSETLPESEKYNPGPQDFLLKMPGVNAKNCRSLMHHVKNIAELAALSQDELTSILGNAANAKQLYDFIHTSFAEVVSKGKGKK
T1 sequence (P07992 1-297): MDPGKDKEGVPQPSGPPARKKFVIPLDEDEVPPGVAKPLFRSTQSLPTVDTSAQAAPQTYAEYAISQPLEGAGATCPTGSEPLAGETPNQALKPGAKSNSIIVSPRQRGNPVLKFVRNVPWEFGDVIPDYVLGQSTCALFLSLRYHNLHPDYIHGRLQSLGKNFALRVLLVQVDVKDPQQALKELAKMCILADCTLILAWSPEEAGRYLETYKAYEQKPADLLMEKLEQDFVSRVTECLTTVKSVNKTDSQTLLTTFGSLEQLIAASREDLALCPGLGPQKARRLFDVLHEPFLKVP
Experimental: Next, to determine reversible or irreversible binding, we used a rapid dilution method. Here, the amount of enzyme (ERCC1-XPF) is increased 100-fold above what is normally used in a reaction and is pre-incubated for 30 minutes with a concentration of the SMI 10-times greater than the IC90 concentration or with vehicle control. After incubation, the enzyme/inhibitor mixture is diluted 100-fold (i.e., to normal reaction conditions) in the reaction buffer with the DNA substrate at normal reaction conditions. A reversible inhibitor dissociates quickly, allowing immediate recovery of enzymatic activity, whereas a slowly reversible inhibitor allows a gradual increase in activity. In contrast, an irreversible inhibitor prevents recovery of any enzymatic activity. […]
Analysis of DNA binding treatment) was used as 100% intrastrand adducts in each […]
Rapid dilution experiments as described previously […]
of the identified compounds – Hit 1 (NSC143099) and Hit comet assay
2 (NSC16168) to ERCC1-XPF. Briefly, in a 10 μl reaction, ERCC1-XPF concentration was increased 100-fold from Repair of interstrand crosslinks (ICLs) normal reaction conditions of 7.5 nM and mixed with 10 was assessed by alkaline comet assay with some times the IC90 concentration of the compound or vehicle modifications. Cells were treated with compound (Hit control (9:1 DMSO-glycerol). After incubation at 37°C 1 or Hit 2) and cisplatin or just cisplatin alone in serum for 30 minutes, 2 μL of the pre-incubate was diluted into a free media. For treatment with compound and cisplatin, 198 μL solution containing the DNA substrate and reaction cells were treated with compound at 15 µM for 2 hours buffer described in the methods section for HTS assay in a 96 and then cisplatin was added (at IC90 concentration for well plate. The 96-well plate was read in a Spectramax M5 the cell line used) to the media and these were incubated repeatedly for 60 minutes. The data was plotted as increase for another 2 hours. […]
Cisplatin intrastrand adduct measurement by of hydrogen peroxide for 15 minutes to induce random ELISA DNA strand breaks. Cells were then trypsinized, pelleted and resuspended in 1% low melting point agarose. Cell […]
ELISA as described with some modifications. […] Equal amounts of DNA were coated on 96 kept in neutralizing solution (0.4 M Tris–HCl, pH 7.5) well DNA binding ELISA plates in binding buffer (1M for 10 minutes. Slides were then stained with SYBR sodium chloride, 50 mM sodium phosphate buffer, pH green (Trevigen) and comets were analyzed using a 7.4, 0.02% sodium azide) and incubated at 4°C overnight. […]
The wells were blocked with 1% BSA in PBS for 1 hour Fifty cells were analyzed per slide using Komet Assay at room temperature. […]

Structure (SMILES) | effect on HhaI activity [1] | effect on ICL repair [2] | intrastrand adducts remaining [3] | recovery of enzymatic activity after rapid dilution [4] | reversibility of binding to ERCC1-XPF [4]
Cc1ccc(S(=O)(=O)Oc2cc(S(=O)(=O)O)cc3cc(S(=O)(=O)O)cc(N)c23)cc1 [NSC16168] | no effect | does not have any effect on ICL repair | ~ 60% | recovers slowly | moderately reversible inhibitor
Oc1cc(O)c2c(c1)OC(c1ccc(O)c(O)c1)C(O)C2c1c(O)cc(O)c2c1OC(c1ccc(O)c(O)c1)C(O)C2 (stereo not shown) [NSC143099] | no effect on HhaI activity | ICL repair was significantly reduced | ~ 65% | virtually no recovery of the enzymatic activity | binds irreversibly
